According to patent US11596639B2, “Substituted indole Mcl-1 inhibitors” (Vanderbilt University, priority 2016, dated 2023):
pKi: −log10 of the molar value. Where two headings read alike, the source gives them in different places.

Tests used:
[1] = system: H929 human cancer cell lines; assay: Cellular viability / proliferation (Cell TiterGlo, 72 h); type: cell-based
Method in brief: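 Compounds were added as 2-fold serial dilutions from 50 μM (final DMSO <1%) to H929 cells seeded 1,000 per well in 10% FBS medium one day earlier.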

Mcl-1 = Mcl-1 (Homo sapiens (Human), UniProt Q07820); assay: TR-FRET binding assay, FITC-Bak peptide and MBP-tagged Mcl-1; conditions: read-out: Ki for Inhibition of Mcl-1 by TR-FRET assay
Sequence of Mcl-1 (Q07820 172-327): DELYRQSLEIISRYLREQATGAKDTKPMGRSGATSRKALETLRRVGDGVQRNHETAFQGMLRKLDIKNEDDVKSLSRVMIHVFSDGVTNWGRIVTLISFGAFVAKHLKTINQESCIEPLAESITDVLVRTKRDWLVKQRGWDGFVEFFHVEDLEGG
Experimental: Compounds are diluted in DMSO in a 16-point, semilog serial dilution scheme. […] The plate was mixed and incubated for 3 hours at room temperature. […] TR-FRET signal is plotted and IC50 and Ki values are calculated in the same manner as the fluorescence polarization anisotropy based competition assays.

[2] = Homo sapiens, NCI-H929, 72 h, read-out: GI50 on cellular proliferation of H929 human cancer cell lines, H929 cells, 72 h, Cell TiterGlo, 10% FBS

SMILES | GI50 [1, 2] [nM] | pKi (Mcl-1) | GI50 ([1]; read-out: GI50 on cellular proliferation of H929 human cancer cell lines, H929 cells, 72 h, Cell TiterGlo, 10% FBS) [nM]
Cc1cc(N2C[C@@H](C)n3c(c(CCCOc4cc(C)c(Cl)c(C)c4)c4ccc(Cl)c(-c5c(C)nn(C)c5C)c43)C2=O)c2c(c1)cc(C(=O)O)n2Cc1cccc(N2CCOCC2)n1 [Example 499, (R)-7-(7-chloro-10-(3-(4-chloro-3,5-dimethylphenoxy)propyl)-4-methyl-1-oxo-6-(1,3,5-trimethyl-1H-pyrazol-4-yl)-3,4-dihydropyrazino[1,2-a]indol-2(1H)-yl)-5-methyl-1-((6-morpholinopyridin-2-yl)methyl)-1H-indole-2-carboxylic acid] | 740 | 9.68 | –
Cc1cc(OCCCc2c3n(c4c(-c5c(C)cc(OCc6ccccn6)cc5C)c(Cl)ccc24)[C@H](C)CN(c2cn(C)c4ccc(C(=O)O)cc24)C3=O)cc(C)c1Cl [Example 497, (R)-3-(7-chloro-10-(3-(4-chloro-3,5-dimethylphenoxy)propyl)-6-(2,6-dimethyl-4-(pyridin-2-ylmethoxy)phenyl)-4-methyl-1-oxo-3,4-dihydropyrazino[1,2-a]indol-2(1H)-yl)-1-methyl-1H-indole-5-carboxylic acid] | 1700 | 8.89 | –
COc1cc(N2C[C@@H](C)n3c(c(CCCOc4cc(C)c(Cl)c(C)c4)c4ccc(Cl)c(-c5c(C)ncnc5C)c43)C2=O)c2c(c1)cc(C(=O)O)n2C [Example 535, (R)-7-(7-Chloro-10-(3-(4-chloro-3,5-dimethylphenoxy)propyl)-6-(4,6-dimethylpyrimidin-5-yl)-4-methyl-1-oxo-3,4-dihydropyrazino[1,2-a]indol-2(1H)-yl)-5-methoxy-1-methyl-1H-indole-2-carboxylic acid] | 280 | > 9.70 | –
Cc1cc(OCCCc2c3n(c4c(-c5c(C)nn(C)c5C)c(Cl)ccc24)[C@H](C)CN(c2cn(Cc4ccncc4)c4ccc(C(=O)O)cc24)C3=O)cc(C)c1Cl [Example 555, (R)-3-(7-chloro-10-(3-(4-chloro-3,5-dimethylphenoxy)propyl)-4-methyl-1-oxo-6-(1,3,5-trimethyl-1H-pyrazol-4-yl)-3,4-dihydropyrazino[1,2-a]indol-2(1H)-yl)-1-(pyridin-4-ylmethyl)-1H-indole-5-carboxylic acid] | 1300 | 9.59 | –
Cc1cc(OCCCc2c3n(c4c(-c5c(C)nn(C)c5C)c(Cl)ccc24)[C@H](C)CN(c2cn(CC(N)=O)c4ccc(C(=O)O)cc24)C3=O)cc(C)c1Cl [Example 620, (R)-1-(2-amino-2-oxoethyl)-3-(7-chloro-10-(3-(4-chloro-3,5-dimethylphenoxy)propyl)-4-methyl-1-oxo-6-(1,3,5-trimethyl-1H-pyrazol-4-yl)-3,4-dihydropyrazino[1,2-a]indol-2(1H)-yl)-1H-indole-5-carboxylic acid] | 7600 | > 9.70 | –
Cc1ccc(Cn2cc(C(=O)O)c3cccc(N4C[C@@H](C)n5c(c(CCCOc6cc(C)c(Cl)c(C)c6)c6ccc(Cl)c(-c7c(C)nn(C)c7C)c65)C4=O)c32)nc1 (single isomer, unassigned) [Example 507] | – | 9.14 | 1400
